Experiments:
Wistar rat = assay: Electrical current threshold for pain (ECT) in the tail after intragastric dosing, pilot experiment; type: in vivo; settings: 150 mg suspended in 1% Cremophor EL, 99% saline, intragastrically; one rat approx. 200 g
Procedure: We performed a pilot experiment on one drug naive nale Wistar rat that weighed approximately 200 g. We measured the nociceptive (pain) threshold in the tail using electrical current as the noxious stimulus. We measured the electrical current threshold for pain (ECT) in the tail every five minutes until the readings stabilised. We then gave 150 mg alphadolone acetate suspended in 1% Cremophor EL, 99% saline, intragastrically.

[1] = Glaxo in-house experiments; cited from earlier work
[2] = system: patients scheduled for knee reconstruction surgery; assay: Phase 1 study of oral alphadolone after knee reconstruction surgery: pain scores, PCA morphine consumption, CPM; type: in vivo, human; settings: for morphine consumption from the PCA machine vs total range of placebo patients: single patients at 100, 250 and 500 mg orally
Source text: A pilot clinical study entitled “Investigation of the analgesic properties of alphadolone acetate administered orally to man—a dose escalation and efficacy study” was submitted to Monash Medical Centre Human Research and Ethics Committee A. It was approved and registered with the Therapeutics Goods Administration it Canberra under the Clinical Trials Notification (CTN) scheme. This was a small pilot study of phase 1 type design but incorporating some randomisation and placebo control because of the nature of the measurements, i.e. subjective pain measurements. The study was performed prospectively, one in three patients randomised to receive placebo formulation (lactose) and double-blind i.e. neither the patient nor the observer (a research anaesthetic registrar) were aware of the nature of the treatment, placebo or alphadolone.
The study consisted of two phases. The first phase was a dose escalation study. At any time during this phase as well as the second phase, if the patient was randomised to receive placebo then a capsule containing lactose was administered orally at the time of medication. If the patient was randomised to receive alphadolone then the first patient so randomised received 25 mg alphadolone acetate orally. The patient was monitored for efficacy of the medication and side effects. If there were no unacceptable side effects such as respiratory depression or severe sedation or disorientation then the next patient randomised to receive the active treatment received a higher dose. The dose escalation planned was in the order, 25, 50, 100, 250, 500 and 1000 mg. The original plan was to continue dose escalation until unacceptable side effects occurred and then to reduce the dose to go onto the next, second, phase of the study, a double-blind comparison of the dose just below the high dose that produced unacceptable side effects compared with placebo. However, the view of the Ethics Committee was that this was more appropriate to a drug company sponsored trial and they ordered that the trial should switch from the dose escalation phase to the comparison phase when there was clear evidence of efficacy.
Thus in the second phase of the study, a double-blind comparison of 250 mg of alphadolone with placebo was carried out. Patient 8, 10, 13 and 14 received 250 mg of alphadolone and patient 9, 11 and 12 received placebo.
14 patients scheduled for knee reconstruction surgery were recruited to this study. On the day prior to surgery for morning surgical patients or on the morning prior to afternoon surgery in those patients scheduled for afternoon lists, written informed consent was obtained from the patients after inclusion and exclusion criteria were met. The patient had to be ASA class 1 or 2, between 18 and 70 years, not using regular analgesics apart from paracetamol and non-steroid anti-inflammatory drugs. These were withheld on the day of surgery. The patient also had to have no renal, hepatic or respiratory disease other than mild asthma and could not be pregnant. No epidural/spinal/knee local anaesthetic or opioid injections were allowed. All patients had to receive post-operative morphine from a patient controlled analgesia device. After obtaining informed consent the patients were then given an opportunity to familiarise themselves with the PCA machine and also practice completing the visual analogue and verbal rating scales used for post-operative assessments.
No premedication was given. The patients were taken to the operating theatre and subjected to a standardised anaesthetic regime that consisted of a propofol induction followed by a propofol infusion and the muscle relaxant of the anaesthetist's preference The trachea was intubated and lungs ventilated with a mixture of nitrous oxide and oxygen. Morphine 1-2 mg intravenously was given as indicated by normal signs of depth of anaesthesia. The amount of morphine used in the operating theatre was recorded in the case record form. […]

[3] = system: spinal cord GABAA receptors
Procedure: A study was performed on five rats. Alphadolone ([…]) was suspended in normal saline. The five rats were randomised to receive on two different occasions on two different days either […]. This was a cross-over study such that on the following occasion if a rat had received vehicle on the first occasion then it received alphadolone on the second occasion and vice versa. This dosing was randomised and the observer making measurements of pain thresholds was blinded to the nature of the drug given to these rats. In each experiment, the electrical current threshold in the neck and the tail were measured every five minutes until three stable readings were obtained. Then either vehicle or alphadolone 750 mg per kg suspended in saline was instilled into the stomach via an oesophageal needle. Five minutes later and every five minutes thereafter, electrical current thresholds for nociception were measured in the skin of the tail and neck At 60 minutes 10 pmol of bicuculline in 5 μl 6% dextrose was injected intrathecally down a Portex catheter that had been implanted previously in the lumbar sub arachnoid space to lie adjacent to the most caudal segments of spinal cord responsible for tail innervation.

[4] = system: spinal cord GABAA receptors; type: in vivo, rat
Source text: Groups of 10 rats were examined for the duration of the loss of righting reflex and loss of coordination in the rotarod test and also for antinociceptive effects in the electrical current threshold test measured in the tail. […] Thus we were able to compare the duration of sedation and anaesthesia and quantity of antinociception following intraperitoneal administration of the neurosteroid mixture and also following the components of the mixture at the doses which were given when the combination was used.
Rats were given a range of doses of alphadolone from 0.1 to 100 mg/kg intraperitoneally. The antinociceptive effect was measured using electrical current in the tail.

[5] = up to six hours after capsule, 100, 250 and 500 mg orally, n = 7

CC(=O)OCC(=O)[C@H]1CC[C@H]2[C@@H]3CC[C@H]4C[C@H](O)CC[C@]4(C)[C@H]3C(=O)C[C@]12C [alphadolone, 21-acetoxy-3alpha-hydroxy-5alpha-pregnane-11,20-dione]
electrical current threshold for pain (ECT) in the tail (Wistar rat): significant rise in tail pain thresholds | intravenous anaesthetic potency relative to alphaxolone [1]: one-third the potency | morphine requirement and pain relief after major knee surgery ([2]; 250 mg and 500 mg given orally): reduced the morphine requirement for pain relief after major knee surgery and at the same time improved the pain relief | morphine sparing over six hours ([2]; (3.62÷12.42)×100% vs placebo): 29.1% | mean morphine usage during the six-hour period after capsule ingestion ([2]; PCA morphine, alphadolone treated patients (placebo 12.42 mg)): 8.8 mg | Standardised VAS scores; Mann-Whitney U-Test, Mean rank ([2]; VAS after capsule as ratio of pre-capsule readings, six hours, 100, 250 and 500 mg orally): 82.85 | morphine consumption from the PCA machine vs total range of placebo patients ([2]; between one and six hours after capsule): fell outside the total range of morphine used by placebo treated patients | verbal rating pain scores compared with placebo (chi squared test) ([2]; n = 7 vs placebo n = 5, p=0.006): significantly lower pain scores | standardised visual analogue scores compared with placebo (Mann-Whitney U-test) ([2]; n = 7 vs placebo n = 5, p=0.0117): significantly lower standadised visual analogue scores | morphine usage compared with placebo (chi-square) ([2]; p=0.0153, p=0.00651 with 3 and 4 mg cells combined): use less than placebo treated patients | Morphine doses in half-hour periods: 0 mg, frequency ([2]; six hours after capsule, n = 7): 39 | Morphine doses in half-hour periods: 1 mg, frequency ([2]; six hours after capsule, n = 7): 29 | Morphine doses in half-hour periods: 2 mg, frequency ([2]; six hours after capsule, n = 7): 15 | Morphine doses in half-hour periods: 3 mg, frequency ([2]; six hours after capsule, n = 7): 1 | Morphine doses in half-hour periods: 4 mg, frequency ([2]; six hours after capsule, n = 7): 0 | morphine usage with increasing alphadolone dose ([2]; six hours after capsule, single patients at 25, 50 and 100 mg orally): progressive reduction in morphine usage | morphine consumption from the PCA machine vs total range of placebo patients ([2]; six hours after capsule): fell outside the total range of the morphine consumption of placebo treated patients | Verbal rating scales for pain: Mild, frequency [2, 5]: 53 | Verbal rating scales for pain: Moderate, frequency [2, 5]: 20 | Verbal rating scales for pain: No pain, frequency [2, 5]: 6 | Verbal rating scales for pain: Severe, frequency [2, 5]: 4 | electrical current threshold in the skin of the tail and the neck ([3]; 750 mg per kg intragastric, suspended in saline, five rats, cross-over vs vehicle): sharp rise in the electrical current threshold | sedation (observation of the animals) ([3]; 750 mg per kg intragastric, five rats): no animals seemed to be sedated in any form whatsoever | antinociception (pain relief) ([3]; given intragastrically to rats): powerful antinociception | sedation ([3]; range of doses intragastrically to rats): no sedation, even at very large doses | dose response of antinociceptive effect (electrical current in the tail) ([4]; 0.1 to 100 mg/kg intraperitoneally, rats): dose-related increase in antinociceptive effect | antinociceptive effects in the electrical current threshold test measured in the tail ([4]; ip, Saffan 2 ml/kg, alphaxalone 18 mg/kg, alphadolone 6 mg/kg, groups of 10 rats): all of the antinociceptive effects of the Saffan mixture could be achieved with alphadolone alone
